Laboratory results from ChEMBL document CHEMBL4673196, “Synthesis and sigma receptor affinity of spiro[[2]benzopyran-1,1-cyclohexanes] with an exocyclic amino moiety in the 3-position” (RSC Med Chem, 2021).
The source made the active and inactive calls. No cut-off for these calls is given here.

Tests used:
Mu-type opioid receptor [1] = target: T1, Mu-type opioid receptor (Homo sapiens, UniProt P35372); assay: Binding affinity to MOR (unknown origin)
[2] = target: T2, Kappa-type opioid receptor (Homo sapiens, UniProt P41145); assay: Binding affinity to KOR (unknown origin)
[3] = target: T3, Delta-type opioid receptor (Homo sapiens, UniProt P41143); assay: Binding affinity to DOR (unknown origin)
[4] = target: Sigma non-opioid intracellular receptor 1 (Cavia porcellus, UniProt Q60492); assay: Displacement of [3H]-pentazocine from guinea pig brain sigma 1 receptor incubated for 120 mins by liquid scintillation counting method; type: tissue-based
[5] = target: T4, Sigma intracellular receptor 2 (Rattus norvegicus, UniProt Q5U3Y7); assay: Displacement of [3H]-DTG from Sprague-Dawley rat liver sigma 2 receptor incubated for 120 mins by liquid scintillation counting method; type: tissue-based
T4 sequence (Q5U3Y7 whole entry): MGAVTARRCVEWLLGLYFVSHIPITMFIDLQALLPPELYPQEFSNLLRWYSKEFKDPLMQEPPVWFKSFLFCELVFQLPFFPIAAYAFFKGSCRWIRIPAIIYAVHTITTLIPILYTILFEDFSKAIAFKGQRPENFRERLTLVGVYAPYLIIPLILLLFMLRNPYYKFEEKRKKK

[6] = target: T5, Sigma intracellular receptor 2 (Rattus norvegicus) (UniProt Q5U3Y7); assay: Displacement of [3H]-DTG from Sprague-Dawley rat liver sigma 2 receptor at 1 uM incubated for 120 mins by liquid scintillation counting method relative to control; type: tissue-based
T5 sequence (whole entry): T4 sequence (Q5U3Y7 whole entry)

[7] = target: T3, Delta-type opioid receptor; assay: Binding affinity to DOR (unknown origin) at <= 1 uM; details: dose microM <=1
Mu-type opioid receptor [8] = target: T1, Mu-type opioid receptor; assay: Binding affinity to MOR (unknown origin) at <= 1 uM; details: dose microM <=1
[9] = target: T2, Kappa-type opioid receptor; assay: Binding affinity to KOR (unknown origin) at <= 1 uM; details: dose microM <=1

Sequence of Sigma non-opioid intracellular receptor 1 (Q60492 whole entry): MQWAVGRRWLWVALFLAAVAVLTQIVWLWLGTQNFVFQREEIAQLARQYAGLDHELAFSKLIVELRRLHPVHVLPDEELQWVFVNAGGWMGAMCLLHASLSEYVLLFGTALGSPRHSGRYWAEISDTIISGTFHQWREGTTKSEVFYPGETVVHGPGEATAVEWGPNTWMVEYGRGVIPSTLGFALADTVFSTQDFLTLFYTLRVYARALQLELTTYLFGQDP
T2 sequence (P41145 whole entry): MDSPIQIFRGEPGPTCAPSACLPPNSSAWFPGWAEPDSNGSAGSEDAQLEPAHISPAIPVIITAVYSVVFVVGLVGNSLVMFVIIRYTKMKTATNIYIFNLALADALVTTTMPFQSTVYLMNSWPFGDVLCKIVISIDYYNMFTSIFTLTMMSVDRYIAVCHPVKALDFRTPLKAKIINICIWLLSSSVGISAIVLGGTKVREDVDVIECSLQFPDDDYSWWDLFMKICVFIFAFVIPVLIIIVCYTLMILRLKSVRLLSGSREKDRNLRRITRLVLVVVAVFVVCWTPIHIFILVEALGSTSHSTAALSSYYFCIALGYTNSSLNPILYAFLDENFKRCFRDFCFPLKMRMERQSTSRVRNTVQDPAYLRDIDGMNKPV
T3 sequence (P41143 whole entry): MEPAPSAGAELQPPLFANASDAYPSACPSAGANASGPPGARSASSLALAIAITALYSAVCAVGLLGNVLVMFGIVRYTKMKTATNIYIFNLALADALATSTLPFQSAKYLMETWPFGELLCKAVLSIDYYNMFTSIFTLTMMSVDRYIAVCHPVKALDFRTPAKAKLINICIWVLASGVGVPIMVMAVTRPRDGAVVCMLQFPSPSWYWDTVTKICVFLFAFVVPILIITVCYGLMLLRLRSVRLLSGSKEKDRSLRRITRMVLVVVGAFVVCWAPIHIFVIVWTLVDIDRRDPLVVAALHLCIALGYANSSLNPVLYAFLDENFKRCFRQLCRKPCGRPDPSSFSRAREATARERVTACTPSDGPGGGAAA
T1 sequence (P35372 whole entry): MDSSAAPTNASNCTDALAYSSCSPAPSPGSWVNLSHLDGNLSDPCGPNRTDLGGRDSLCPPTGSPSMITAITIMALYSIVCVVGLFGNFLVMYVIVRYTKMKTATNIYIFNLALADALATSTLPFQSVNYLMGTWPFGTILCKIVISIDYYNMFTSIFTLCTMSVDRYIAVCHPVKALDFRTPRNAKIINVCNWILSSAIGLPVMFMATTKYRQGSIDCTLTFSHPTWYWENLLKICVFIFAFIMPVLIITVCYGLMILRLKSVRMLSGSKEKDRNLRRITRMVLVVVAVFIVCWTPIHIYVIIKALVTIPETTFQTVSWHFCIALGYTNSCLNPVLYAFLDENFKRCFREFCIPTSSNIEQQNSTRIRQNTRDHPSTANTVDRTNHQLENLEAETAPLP

In the case of `c1ccc2c(c1)CCO[C@@]21CCC[C@H](NCC2CCCCC2)C1` (relative stereo), the Ki (Mu-type opioid receptor [1]) is reported as 696 nM, the Ki [2] is reported as 407 nM and the Ki [3] is reported as 150 nM. The Ki [4] was 5.4 nM and the Ki [5] was 60 nM.
`CN(Cc1ccccc1)[C@H]1CCC[C@]2(C1)OCCc1ccccc12` (relative stereo) gave an inhibition [6] of 24% and a Ki [4] of 278 nM.
In the case of `CN(CC1CCCCC1)[C@H]1CCC[C@]2(C1)OCCc1ccccc12` (relative stereo), the Activity [7] is reported as “inactive”, the inhibition [6] is reported as 34% and the Ki [4] is reported as 15 nM. For the same compound, the Activity (Mu-type opioid receptor [8]) was “inactive” and the Activity [9] was “inactive”.
Work on `c1ccc(CN[C@H]2CCC[C@]3(C2)OCCc2ccccc23)cc1` (relative stereo) yielded a Ki [4] of 95 nM and a Ki [5] of 340 nM.
